Converted amounts (≈) assume the structure as drawn.
What was measured:
P388 = test: Cytotoxicity against mouse P388 cells by microculture tetrazolium assay; type: functional, cell-based
Influenza A virus = test: Antiviral activity against influenza virus A/Puerto Rico/8/34 H1N1 in MDCK cells assessed as reduction in virus-induced cytopathic effect after 3 days by neutral red uptake assay; type: functional, organism-based; conditions: A/Puerto Rico/8/1934(H1N1), 72 h
[1] = Therapeutic index, ratio of cytotoxicity against MDCK cells to IC50 for influenza virus A/Puerto Rico/8/34 H1N1; type: cell-based; conditions: dog, read-out: TI

| SMILES | IC50 (P388) [µg/mL] | IC50 (Influenza A virus) [µg/mL] | selectivity ratio [1] |
| --- | --- | --- | --- |
| COc1ccc(OC(C)=O)c2c1C[C@]1(C)[C@@H](C)CC[C@H]3C(C)(C)CCC[C@]31O2 | 23.8 (≈ 61.6 µM) | 5 (≈ 12.9 µM) | 100 |
| COc1ccc(O)c2c1C[C@]1(C)[C@@H](C)CC[C@H]3C(C)(C)CCC[C@]31O2 [STRONGYLIN A] | 13 (≈ 37.7 µM) | 6.5 (≈ 18.9 µM) | 9 |

From ChEMBL document CHEMBL1158975, “An antiviral sesquiterpene hydroquinone from the marine sponge Strongylophora hartmani” (J Nat Prod, 1991)
